Laboratory results: PubChem BioAssay (NCI)
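Assay format: 96-well plates, 48-hour exposure. GI50 is the concentration that inhibits growth by half. TGI: total growth inhibition.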

Assays:
Assay in all cases: DTP human tumour cell line panel, 48 h
[1] = tested on: OVCAR-8 ovarian
[2] = tested on: EKVX NSCLC
[3] = tested on: OVCAR-3 ovarian
[4] = tested on: UO-31 renal
[5] = tested on: DU-145 prostate
[6] = tested on: MDA-MB-231 breast
[7] = tested on: CAKI-1 renal
[8] = tested on: SK-MEL-2 melanoma
[9] = tested on: OVCAR-4 ovarian
[10] = tested on: MCF7 breast
[11] = tested on: SF-539 CNS
[12] = tested on: SF-268 CNS
[13] = tested on: U251 CNS
[14] = tested on: HOP-92 NSCLC
[15] = tested on: HS 578T breast
[16] = tested on: IGROV1 ovarian
[17] = tested on: NCI/ADR-RES ovarian
[18] = tested on: A498 renal
[19] = tested on: NCI-H522 lung
[20] = tested on: SK-MEL-5 melanoma
[21] = tested on: HCT-116 colon
[22] = tested on: SNB-75 CNS
[23] = tested on: MOLT-4 leukemia
[24] = tested on: UACC-62 melanoma
[25] = tested on: TK-10 renal
[26] = tested on: A549 NSCLC
[27] = tested on: NCI-H23 lung
[28] = tested on: SF-295 CNS
[29] = tested on: ACHN renal
[30] = tested on: RXF 393 renal
[31] = tested on: HCC-2998 colon
[32] = tested on: T-47D breast
[33] = tested on: SNB-19 CNS
[34] = tested on: HOP-62 NSCLC
[35] = tested on: SK-MEL-28 melanoma
[36] = tested on: SN12C renal
[37] = tested on: HT29 colon
[38] = tested on: M14 melanoma
[39] = tested on: COLO 205 colon
[40] = tested on: SK-OV-3 ovarian
[41] = tested on: BT-549 breast
[42] = tested on: K-562 leukemia
[43] = tested on: KM12 colon
[44] = tested on: UACC-257 melanoma
[45] = tested on: 786-0 renal
[46] = tested on: HCT-15 colon
[47] = tested on: NCI-H460 lung
[48] = tested on: NCI-H226 lung
[49] = tested on: RPMI-8226 leukemia
[50] = tested on: SW-620 colon
[51] = tested on: HL-60(TB) leukemia
[52] = tested on: MDA-MB-435
[53] = tested on: OVCAR-5 ovarian
[54] = tested on: PC-3 prostate
[55] = tested on: SR leukemia
[56] = tested on: MALME-3M melanoma
[57] = tested on: CCRF-CEM leukemia
[58] = tested on: LOX IMVI melanoma

Cc1cc(Oc2ccccc2)ccc1Nc1ncnc2ccc(-c3cnc(Cl)c(NS(C)(=O)=O)c3)cc12
GI50 [1]: 3390 nM
TGI [1]: 19000 nM
GI50 [2]: 1490 nM
TGI [2]: 10600 nM
GI50 [3]: 855 nM
TGI [3]: 2600 nM
GI50 [4]: 604 nM
TGI [4]: 3650 nM
GI50 [5]: 2040 nM
TGI [5]: 12100 nM
GI50 [6]: 1620 nM
TGI [6]: 4220 nM
GI50 [7]: 1040 nM
TGI [7]: 5980 nM
GI50 [8]: 1390 nM
TGI [8]: 3770 nM
GI50 [9]: 2150 nM
TGI [9]: 10500 nM
GI50 [10]: 282 nM
TGI [10]: 13100 nM
GI50 [11]: 1010 nM
TGI [11]: 3620 nM
GI50 [12]: 1640 nM
TGI [12]: 12600 nM
GI50 [13]: 2190 nM
TGI [13]: 10500 nM
GI50 [14]: 246 nM
TGI [14]: 1380 nM
GI50 [15]: 587 nM
TGI [15]: 6810 nM
GI50 [16]: 227 nM
TGI [16]: 1130 nM
GI50 [17]: 3120 nM
TGI [17]: > 100000 nM
GI50 [18]: 1380 nM
TGI [18]: 3970 nM
GI50 [19]: 2300 nM
TGI [19]: 10300 nM
GI50 [20]: 1550 nM
TGI [20]: 3000 nM
GI50 [21]: 2510 nM
TGI [21]: 13300 nM
GI50 [22]: 277 nM
TGI [22]: 3410 nM
GI50 [23]: 1510 nM
TGI [23]: 5150 nM
GI50 [24]: 625 nM
TGI [24]: 2110 nM
GI50 [25]: 1790 nM
TGI [25]: 20800 nM
GI50 [26]: 2030 nM
TGI [26]: 6160 nM
GI50 [27]: 2180 nM
TGI [27]: 9560 nM
GI50 [28]: 1090 nM
TGI [28]: 5430 nM
GI50 [29]: 2450 nM
TGI [29]: 15500 nM
GI50 [30]: 1320 nM
TGI [30]: 3840 nM
GI50 [31]: 1580 nM
TGI [31]: 3750 nM
GI50 [32]: 185 nM
TGI [32]: 1370 nM
GI50 [33]: 2200 nM
TGI [33]: 7070 nM
GI50 [34]: 2840 nM
TGI [34]: 18300 nM
GI50 [35]: 745 nM
TGI [35]: 5530 nM
GI50 [36]: 2160 nM
TGI [36]: 12500 nM
GI50 [37]: 1500 nM
TGI [37]: 12100 nM
GI50 [38]: 2040 nM
TGI [38]: 12900 nM
GI50 [39]: 1450 nM
TGI [39]: 3780 nM
GI50 [40]: 505 nM
TGI [40]: 4200 nM
GI50 [41]: 1160 nM
TGI [41]: 4500 nM
GI50 [42]: 3580 nM
TGI [42]: > 100000 nM
GI50 [43]: 2170 nM
TGI [43]: 7430 nM
GI50 [44]: 1950 nM
TGI [44]: 8260 nM
GI50 [45]: 2230 nM
TGI [45]: 14000 nM
GI50 [46]: 1730 nM
TGI [46]: 10700 nM
GI50 [47]: 1710 nM
TGI [47]: 12500 nM
GI50 [48]: 3660 nM
TGI [48]: 20100 nM
GI50 [49]: 2180 nM
TGI [49]: 6070 nM
GI50 [50]: 2380 nM
TGI [50]: 13100 nM
GI50 [51]: 1550 nM
TGI [51]: 13700 nM
GI50 [52]: 1260 nM
TGI [52]: 3480 nM
GI50 [53]: 544 nM
TGI [53]: 3660 nM
GI50 [54]: 1450 nM
TGI [54]: 10500 nM
GI50 [55]: 1770 nM
TGI [55]: 5560 nM
GI50 [56]: 612 nM
TGI [56]: 3790 nM
GI50 [57]: 1320 nM
TGI [57]: 15600 nM
GI50 [58]: 964 nM
TGI [58]: 4000 nM
